Data taken from ChEMBL document CHEMBL5550181 (Bioorg Med Chem, 2024).
Calls of active or inactive are those of the source. The rule behind the calls is not given here.

Experiments:
[1] = biological target: T1, Proteasome subunit beta type-8 (Homo sapiens, UniProt P28062); assay: Inhibition of human LMP7 beta -5i subunit using Ac-ANW-AMC as substrate preincubated with compound for 30 mins followed by substrate addition and measured after 1 hr by fluorescence based analysis
T1 sequence (P28062 whole entry): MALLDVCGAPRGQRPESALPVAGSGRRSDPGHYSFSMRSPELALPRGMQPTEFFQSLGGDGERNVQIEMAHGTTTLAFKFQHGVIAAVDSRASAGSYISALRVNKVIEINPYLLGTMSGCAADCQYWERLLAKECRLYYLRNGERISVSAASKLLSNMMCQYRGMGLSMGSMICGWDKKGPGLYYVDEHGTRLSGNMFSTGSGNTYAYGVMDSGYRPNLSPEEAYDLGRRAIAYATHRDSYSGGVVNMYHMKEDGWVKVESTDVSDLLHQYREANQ

[2] = biological target: T2, Proteasome Macropain subunit MB1 (Homo sapiens, UniProt P28074); assay: Inhibition of human 20S proteosome beta5c subunit using Ac-WLA-AMC as substrate preincubated with compound for 30 mins followed by substrate addition and measured after 1 hr by fluorescence based analysis
T2 sequence (P28074 whole entry): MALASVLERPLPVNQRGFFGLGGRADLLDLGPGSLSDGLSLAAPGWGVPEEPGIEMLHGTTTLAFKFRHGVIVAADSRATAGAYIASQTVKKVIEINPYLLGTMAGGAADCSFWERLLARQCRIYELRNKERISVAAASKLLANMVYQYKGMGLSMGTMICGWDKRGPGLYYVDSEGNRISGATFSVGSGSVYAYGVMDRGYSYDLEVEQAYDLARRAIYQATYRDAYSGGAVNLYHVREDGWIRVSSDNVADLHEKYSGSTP

Homo sapiens [3] = organism: Homo sapiens; assay: Selectivity index, ratio of IC50 for inhibition of human 20S proteosome beta5c subunit using Ac-WLA-AMC as substrate to IC50 for inhibition of human LMP7 beta -5i subunit using Ac-ANW-AMC as substrate
[4] = biological target: T3, Proteasome subunit beta type-9 (Homo sapiens, UniProt P28065); assay: Inhibition of human LMP2 beta-1i subunit using Ac-PAL-AMC as substrate preincubated with compound for 30 mins followed by substrate addition and measured after 1 hr by fluorescence based analysis
T3 sequence (P28065 whole entry): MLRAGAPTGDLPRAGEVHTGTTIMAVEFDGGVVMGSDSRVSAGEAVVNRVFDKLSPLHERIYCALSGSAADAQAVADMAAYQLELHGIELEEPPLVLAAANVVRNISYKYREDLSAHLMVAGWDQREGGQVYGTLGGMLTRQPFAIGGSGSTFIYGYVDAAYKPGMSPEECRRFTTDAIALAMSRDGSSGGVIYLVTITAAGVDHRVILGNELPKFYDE

[5] = Drug metabolism in human liver microsomes assessed as reactive metabolite formation by measuring dGSH trapping measured per mg of protein incubated for 60 mins in presence of NADPH by HPLC analysis; assay type: ADME, Microsome; details: 1 h
Homo sapiens [6] = organism: Homo sapiens; assay: Selectivity index, ratio of IC50 for inhibition of human 20S proteosome beta5c subunit using Ac-WLA-AMC as substrate to IC50 for inhibition of human LMP2 beta-1i subunit using Ac-PAL-AMC as substrate
Mus musculus [7] = assay: Reduction in NP30-specific IgG level in GCB of NP-OVA-induced C57BL/6 mouse model at 10 to 30 mg/kg, po administered for 9 days by flow cytometry analysis; assay type: functional, organism-based; details: dose 10-30 mg/kg, time 9.0 day
Plasma = assay: Reduction in NP30-specific IgG level in plasma of NP-OVA-induced C57BL/6 mouse model at 30 mg/kg, po administered for 9 days by ELISA analysis; assay type: functional, organism-based; details: time 9.0 day
[8] = Microsomal stability in mouse liver microsome assessed as intrinsic clearance; assay type: ADME; details: liver microsomes, read-out: CLH
[9] = Effect on hematological parameters in C57BL/6 mouse at 3 to 30 mg/kg, po administered for 9 days; assay type: toxicity, organism-based; details: in vivo, 216 h, dose 3-30 mg/kg, time 9 day
[10] = Permeability of the compound by PAMPA assay; assay type: ADME; details: read-out: permeability
Mus musculus [11] = assay: Inhibition of NP30-IgG production in NP-OVA-induced po dosed C57BL/6 mouse model administered for 9 days by ELISA analysis; assay type: functional, organism-based; details: dose 3-30 mg/kg, time 9.0 day

| SMILES | IC50 [1] [nM] | IC50 [2] [µM] | Ratio IC50 (Homo sapiens [3]) | IC50 [4] [nM] | Drug metabolism [5] [pmol/h] | Ratio IC50 (Homo sapiens [6]) | Activity (Mus musculus [7]) | Activity (Plasma) | microsomal CLint [8] [µL/min/mg] | Activity [9] | Papp [10] [×10⁻⁶ cm/s] | inhibition (Mus musculus [11]) |
| --- | --- | --- | --- | --- | --- | --- | --- | --- | --- | --- | --- | --- |
| O=C(N[C@@H](CC1CCCCC1)B(O)O)c1cn(C2CCCCC2)nn1 | 130 | 19.5 | 150 | < 10 | 680 | – | – | – | – | – | – | – |
| O=C(N[C@H](B(O)O)C1CCC1)c1cn(C2CCCCC2)nn1 | 655 | 4.95 | 8 | < 5 | – | – | – | – | – | – | – | – |
| COc1ccc([C@@H](O)[C@H](NC(=O)[C@H](C)NC(=O)CN2CCOCC2)C(=O)N[C@@H](CC2=CCCC2)C(=O)[C@@]2(C)CO2)cc1 [ZETOMIPZOMIB] | 75 | 0.72 | 9.6 | 557 | – | 1.29 | – | – | – | – | – | – |
| CC(C)C[C@H](NC(=O)c1cc(C2CCCCC2)nn1C)B(O)O | 888 | 19.5 | 22 | 226 | – | – | – | – | – | – | – | – |
| CC(C)C[C@H](NC(=O)c1cc(C2CCCCC2)n(C)n1)B(O)O | 11200 | > 80 | > 7 | 188 | – | – | – | – | – | – | – | – |
| Cc1c(C(=O)N[C@@H](CC(C)C)B(O)O)nnn1C1CCCCC1 | 1210 | 47.3 | 39 | 189 | – | – | – | – | – | – | – | – |
| CC(C)C[C@H](NC(=O)c1ccc(C2CCCCC2)nn1)B(O)O | 82 | 2.95 | 36 | 10 | – | – | – | – | – | – | – | – |
| CC(C)C[C@H](NC(=O)c1cn(C2CCCCC2)nn1)B(O)O | 73 | 3.22 | 44 | 3 | 1273 | 1070 | – | – | – | – | – | – |
| CC(C)C[C@H](NC(=O)c1cc(C2CCCCC2)no1)B(O)O | 192 | 3.69 | 19 | 5 | – | – | – | – | – | – | – | – |
| O=C(N[C@@H](CC1CCCC1)B(O)O)c1cn(C2CCCCC2)nn1 | 63 | 15.4 | 244 | < 5 | 426 | – | – | – | – | – | – | – |
| O=C(N[C@H](B(O)O)C1CCCC1)c1cn(C2CCCCC2)nn1 | 132 | 5.2 | 39 | 18 | – | – | – | – | – | – | – | – |
| CC(C)C[C@H](NC(=O)c1cc(C2CCCCC2)on1)B(O)O | 145 | 2.98 | 21 | 9 | – | – | – | – | – | – | – | – |
| CC(C)C[C@H](NC(=O)c1cnn(C2CCCCC2)c1)B(O)O | 18800 | > 80 | > 4 | 132 | – | – | – | – | – | – | – | – |
| O=C(N[C@@H](Cc1coc2ccccc12)B(O)O)[C@@H]1C[C@H]2CC[C@@H]1O2 | 8 | 2.41 | 302 | > 80000 | – | – | – | – | – | – | – | – |
| O=C(N[C@@H](CC1CCC1)B(O)O)c1cn(C2CCCCC2)nn1 | 198 | 13.1 | 66 | < 5 | – | – | – | – | – | – | – | – |
| O=C(N[C@@H](Cc1ccccc1)B(O)O)c1cn(C2CCCCC2)nn1 | 8 | 0.302 | 38 | 5 | 736 | – | – | – | – | – | – | – |
| CC(C)C[C@H](NC(=O)c1cnn(C2CCCCC2)n1)B(O)O | 1570 | 6.31 | 4 | 62 | – | – | – | – | – | – | – | – |
| O=C(N[C@H](B(O)O)C1CCCCC1)c1cn(C2CCCCC2)nn1 | 257 | 44.6 | 174 | 10 | 342 | – | Active | Active | 99 | Non-Toxic | 11.9 | Dose-Dependent Effect |
